≈ marks a conversion by molar mass, not a printed value. Structures can show the parent of a compound that is named as a salt.

Holding throughout (test): MIC by serial dilution in agar
What all share (assay type): cell-based

One experiment deals with E. coli DC RTEM. The note with it: Escherichia coli. Here is the method: (§1) Minimum Inhibitory concentration (MIC) values of compounds of the invention against E. coli JT425 and DC RTEM, K. Pneumoniae T767 and P. aeruginosa 10662 and K79961. were determined by serial dilution in Iso-sensitest Agar (from Oxoid Ltd., Basingstoke, England). The plates were inoculated with 10^4 colony forming units and incubated overnight at 37° C. The MIC values recorded in Table 1 were the lowest concentration of antibiotic to inhibit growth. Comparative data for Piperacillin which is the compound 6β-[D-2-[(4-ethyl-2,3-dioxopiperazin-1-yl)carbonylamino]-2-phenylacetamido]-penicillanic acid, sodium salt and for the compound 6α-formamido-6β-[D-2-[(4-ethyl-2,3-dioxopiperazin-1-yl)carbonylamino]-2-phenylacetamido]-penicillanic acid, sodium salt (Compound A) disclosed in U.K. GB Pat. No.-2107307B, are also given.

The test system of another experiment is E. coli JT 425. The note with it: Escherichia coli, JT425; Iso-sensitest Agar, 10^4 colony forming units, overnight at 37° C. The procedure:
as §1

For the next experiment, the system named is K. pneumoniae T767. To be noted: Klebsiella pneumoniae, Iso-sensitest Agar, 10^4 colony forming units, overnight at 37° C. Here is the method:
as §1

Another experiment has as its system P. aeruginosa 10662. To be noted: Pseudomonas aeruginosa, Iso-sensitest Agar, 10^4 colony forming units, overnight at 37° C. Here is the method:
as §1

Another experiment concerns P. aeruginosa K79961. The note with it: Pseudomonas aeruginosa, Iso-sensitest Agar, 10^4 colony forming units, overnight at 37° C. The procedure:
as §1

In the case of `CCN1CCN(C(=O)N[C@@H](C(=O)N[C@]2(NC=O)C(=O)N3[C@@H](C(=O)O)[C@](C)(COC(=O)c4ccc(O)c(O)c4)S[C@@H]32)c2ccccc2)C(=O)C1=O` [Example 2, Sodium 6β-[R,2-(4-ethyl-2,3-dioxopiperazin-1-yl)carbonylamino-2-phenylacetamido]-6α-formamido-2β-(3,4-dihydroxybenzoyloxy)methyl-2α-methylpenam-3-carboxylate], the MIC (as a rule, the least concentration at which growth counts as inhibited) was less than 0.03 µg/mL against E. coli DC RTEM; 0.5 µg/mL in the experiment with E. coli JT 425; 0.12 µg/mL in the experiment on K. pneumoniae T767; 0.12 µg/mL against P. aeruginosa 10662; less than 0.03 µg/mL with P. aeruginosa K79961.

For `CCN1CCN(C(=O)N[C@@H](C(=O)N[C@@H]2C(=O)N3[C@@H]2SC(C)(C)[C@@H]3C(=O)O)c2ccccc2)C(=O)C1=O` [Piperacillin, 6β-[D-2-[(4-ethyl-2,3-dioxopiperazin-1-yl)carbonylamino]-2-phenylacetamido]-penicillanic acid, sodium salt, reference compound], the MIC against E. coli DC RTEM was greater than 128 µg/mL; against E. coli JT 425, 16 µg/mL; in the experiment with K. pneumoniae T767, 2 µg/mL; against P. aeruginosa 10662, 2 µg/mL; against P. aeruginosa K79961, greater than 0.06 µg/mL.

As for `CCN1CCN(C(=O)N[C@@H](C(=O)N[C@]2(NC=O)C(=O)N3[C@@H](C(=O)O)C(C)(C)S[C@@H]32)c2ccccc2)C(=O)C1=O` [Compound A, 6α-formamido-6β-[D-2-[(4-ethyl-2,3-dioxopiperazin-1-yl)carbonylamino]-2-phenylacetamido]-penicillanic acid, sodium salt, reference compound], the MIC in the experiment with E. coli DC RTEM is 4 µg/mL; against E. coli JT 425, 8 µg/mL; in the experiment with K. pneumoniae T767 it was 4 µg/mL; in the experiment with P. aeruginosa 10662, 16 µg/mL; in the experiment on P. aeruginosa K79961, 2 µg/mL.

Take `CCN1CCN(C(=O)N[C@@H](C(=O)N[C@]2(NC=O)C(=O)N3[C@@H](C(=O)O)[C@](C)(COC(=O)c4ccc(OC(C)=O)c(OC(C)=O)c4)S[C@@H]32)c2ccccc2)C(=O)C1=O` [Example 1]: the MIC against E. coli DC RTEM stood at 0.12 µg/mL (≈ 0.151 µM); against E. coli JT 425 it was 0.5 µg/mL (≈ 0.628 µM); against K. pneumoniae T767, 0.12 µg/mL (≈ 0.151 µM); against P. aeruginosa 10662 it was 0.25 µg/mL (≈ 0.314 µM); against P. aeruginosa K79961 it was 0.06 µg/mL (≈ 0.0753 µM).

As to `CCN1CCN(C(=O)N[C@@H](C(=O)N[C@@H]2C(=O)N3[C@@H]2S[C@@](C)(COC(=O)c2ccc(OC(C)=O)c(OC(C)=O)c2)[C@@H]3C(=O)O)c2ccccc2)C(=O)C1=O` [Example 3, Sodium 2β-(3,4-diacetoxybenzoyloxy)methyl-6β-[R,2-(4-ethyl-2,3-dioxopiperazin-1-yl)carbonylamino-2-phenylacetamido]-2α-methylpenam-3-carboxylate], the MIC is 4 µg/mL with E. coli DC RTEM; 1 µg/mL against E. coli JT 425; 0.25 µg/mL against K. pneumoniae T767; less than 0.03 µg/mL with P. aeruginosa 10662; less than 0.03 µg/mL with P. aeruginosa K79961.
